Experimental data published in paper PMC6444592, “Citrullination of HP1γ chromodomain affects association with chromatin” (Epigenetics & Chromatin, 2019).

Key:
mESCs [1] = assay: live-cell single-particle tracking, 13.5 ms, jump distance analysis; format: cell-based, mouse
Description: (§1) Parental E14 mouse embryonic stem cell (mESC) line was profiled by transcriptome analysis, qPCR and potency assays and was routinely tested for mycoplasma contamination and tested negative. Cells were cultured in DMEM (Gibco) supplemented with 15% standard FCS (Gibco), 0.1 mM non-essential amino acids (Gibco), 1% penicillin/streptomycin, 2 mM L-glutamine (Gibco), 1 mM sodium pyruvate (Gibco), 0.1 mM β-mercaptoethanol (Life Technologies) and 10^6 units/l mLIF (ESGRO, Millipore). E14 cells were stored in incubators at 37 °C in 7.5% CO2 (100% humidity) and maintained in 0.1% gelatin coated 10-cm culture dishes with 1:6 passaging every 2 days. Media was changed on a daily basis. E14 ESCs expressing mouse mEos3.2–HaloTag-HP1 fusion proteins were generated by transfecting appropriate pSB7 plasmids into E14 cells using Lipofectamine 2000 transfection reagent (Invitrogen), followed by selection in 600 µg/ml geneticin (Life Technologies). After 2 weeks of geneticin selection, cells were sorted using a Sony SH800S cell sorter for the expression of mEos3.2. Differentiation of ESCs was induced by LIF withdrawal. ESCs cultured in complete ES cell media (+ LIF) were trypsinised and washed twice in 1x PBS to remove residual LIF, seeded into ES cell media without LIF and incubated for 24, 48 or 72 h.
An IX73 Olympus inverted microscope was used with circularly polarised laser beams aligned and focused at the back aperture of an Olympus 1.40 NA 100 × oil objective (Universal Plan Super Apochromat, 100 × , NA 1.40, UPLSAPO100XO/1.4). Continuous wavelength diode laser light sources used include a 561-nm (Cobolt, Jive 200, 200 mW) and a 405-nm laser (Stradus, Toptica, 405–100, 100 mW). Oblique angle illumination was achieved by aligning the laser off axis such that the emergent beam at the sample interface was near-collimated and incident at an angle slightly less than the critical angle θc ~ 67° for a glass/water interface. This generated a ~ 50 μm diameter excitation footprint. The power of the collimated beams at the back aperture of the microscope was 10 kW/cm^2 and 10–100 W/cm^2 for the 561-nm and 405-nm laser beams, respectively. The lasers were reflected by dichroic mirrors (Semrock, Di01-R405/488/561/635). The fluorescence emission was collected through the same objective and then further filtered using a combination of long-pass and band-pass filters (BLP01-561R and FF01-587/35 for 561 nm excitation). The emission signal was projected onto an EMCCD (Photometrics, Evolve 512 Delta) with an electron multiplication gain of 250 ADU/photon operating in a frame transfer mode.
mESCs expressing mEos3.2–HaloTag-tagged HP1γ were passaged 2 days before imaging onto 35-mm glass bottom dishes No 1.0 (MatTek Corporation P35G-1.0-14-C Case) in phenol red-free serum and LIF conditions, if not stated otherwise. Just before single-particle tracking (SPT) imaging experiments, cells were labelled with 0.5 nM HaloTag–JF549 ligand for at least 15 min, followed by two washes in PBS and a 30-min incubation at 37 °C in media, before imaging the cells in fresh phenol red-free serum and LIF conditions. Cells were under-labelled to prevent overlap of fluorophores during SPT. Using 561 nm excitation, fluorescence images were collected as movies of 10,000 frames at 13.5 ms or 1000 to 5000 frames at 500 ms exposure. For live-cell tracking, data were collected for three biological replicates on separate dishes and the average values compared.
Live-cell 13.5-ms single-molecule traces were analysed using software that detects single-molecule trajectories from SPT movies. Briefly, the code detected puncta positions in each image frame using a brightness-weighted centroid after applying a band-pass filter to remove low-frequency background and high-frequency noise from the image data. To track the HP1 single molecules, only fluorescent puncta smaller than 3 pixels and with a signal to noise greater than 8 were analysed. […]

mESCs [2] = assay: HP1γ foci formation, fluorescence imaging of mEos3.2; format: cell-based, mouse; conditions: +/− LIF 72 h
Description: as §1, with “After 2 weeks of geneticin selection, cells were sorted using a Sony SH800S cell sorter for the expression of mEos3.2. Differentiation of ESCs was induced by LIF withdrawal. ESCs cultured in complete ES cell media (+ LIF) were trypsinised and washed twice in 1x PBS to remove residual LIF, seeded into ES cell media without LIF and incubated for 24, 48 or 72 h.” left out
An IX73 Olympus inverted microscope was used with circularly polarised laser beams aligned and focused at the back aperture of an Olympus 1.40 NA 100 × oil objective (Universal Plan Super Apochromat, 100 × , NA 1.40, UPLSAPO100XO/1.4). […] The fluorescence emission was collected through the same objective and then further filtered using a combination of long-pass and band-pass filters (BLP01-561R and FF01-587/35 for 561 nm excitation). […]

HP1γR38/9A: HP1γ with alanine substitutions at amino acids 38 and 39 to mimic citrullination
Diffusion coefficient, Bound (mESCs [1]; +LIF, 13.5 ms, replicate i): 0.090 µm2s-1
Diffusion coefficient, Diffusing (mESCs [1]; +LIF, 13.5 ms, replicate i): 0.746 µm2s-1
Percentage, Bound (mESCs [1]; +LIF, 13.5 ms, replicate i): 38.9%
Percentage, Diffusing (mESCs [1]; +LIF, 13.5 ms, replicate i): 61.1%
Diffusion coefficient, Bound (mESCs [1]; +LIF, 13.5 ms, replicate ii): 0.100 µm2s-1
Diffusion coefficient, Diffusing (mESCs [1]; +LIF, 13.5 ms, replicate ii): 0.761 µm2s-1
Percentage, Bound (mESCs [1]; +LIF, 13.5 ms, replicate ii): 29.6%
Percentage, Diffusing (mESCs [1]; +LIF, 13.5 ms, replicate ii): 70.4%
Diffusion coefficient, Bound (mESCs [1]; +LIF, 13.5 ms, replicate iii): 0.100 µm2s-1
Diffusion coefficient, Diffusing (mESCs [1]; +LIF, 13.5 ms, replicate iii): 0.706 µm2s-1
Percentage, Bound (mESCs [1]; +LIF, 13.5 ms, replicate iii): 34.1%
Percentage, Diffusing (mESCs [1]; +LIF, 13.5 ms, replicate iii): 65.9%
Diffusion coefficient, Bound (mESCs [1]; +LIF, 13.5 ms, replicate iv): 0.100 µm2s-1
Diffusion coefficient, Diffusing (mESCs [1]; +LIF, 13.5 ms, replicate iv): 1.012 µm2s-1
Percentage, Bound (mESCs [1]; +LIF, 13.5 ms, replicate iv): 21.5%
Percentage, Diffusing (mESCs [1]; +LIF, 13.5 ms, replicate iv): 78.5%
Diffusion coefficient, Bound (mESCs [1]; +LIF, 13.5 ms, replicate v): 0.100 µm2s-1
Diffusion coefficient, Diffusing (mESCs [1]; +LIF, 13.5 ms, replicate v): 1.094 µm2s-1
Percentage, Bound (mESCs [1]; +LIF, 13.5 ms, replicate v): 13.1%
Percentage, Diffusing (mESCs [1]; +LIF, 13.5 ms, replicate v): 86.9%
Diffusion coefficient, Bound (mESCs [1]; +LIF, 13.5 ms, replicate vi): 0.100 µm2s-1
Diffusion coefficient, Diffusing (mESCs [1]; +LIF, 13.5 ms, replicate vi): 1.108 µm2s-1
Percentage, Bound (mESCs [1]; +LIF, 13.5 ms, replicate vi): 37.1%
Percentage, Diffusing (mESCs [1]; +LIF, 13.5 ms, replicate vi): 62.9%
percentages of molecules in diffusing and bound fractions, significance across conditions (mESCs [1]; WT and R38/9A, +/− LIF, p values > 0.967): ns.
diffusion coefficients, significance across conditions (mESCs [1]; WT and R38/9A, +/− LIF, p values > 0.999): no significant differences across conditions
diffusion rate, effect of LIF withdrawal (mESCs [1]; −LIF 72 h versus +LIF, 13.5 ms): no significant effect
Diffusion coefficient, Bound (mESCs [1]; −LIF, 13.5 ms, replicate i): 0.075 µm2s-1
Diffusion coefficient, Diffusing (mESCs [1]; −LIF, 13.5 ms, replicate i): 0.609 µm2s-1
Percentage, Bound (mESCs [1]; −LIF, 13.5 ms, replicate i): 44.5%
Percentage, Diffusing (mESCs [1]; −LIF, 13.5 ms, replicate i): 55.5%
Diffusion coefficient, Bound (mESCs [1]; −LIF, 13.5 ms, replicate ii): 0.100 µm2s-1
Diffusion coefficient, Diffusing (mESCs [1]; −LIF, 13.5 ms, replicate ii): 0.697 µm2s-1
Percentage, Bound (mESCs [1]; −LIF, 13.5 ms, replicate ii): 37.2%
Percentage, Diffusing (mESCs [1]; −LIF, 13.5 ms, replicate ii): 62.8%
Diffusion coefficient, Bound (mESCs [1]; −LIF, 13.5 ms, replicate iii): 0.100 µm2s-1
Diffusion coefficient, Diffusing (mESCs [1]; −LIF, 13.5 ms, replicate iii): 0.913 µm2s-1
Percentage, Bound (mESCs [1]; −LIF, 13.5 ms, replicate iii): 32.9%
Percentage, Diffusing (mESCs [1]; −LIF, 13.5 ms, replicate iii): 67.1%
Diffusion coefficient, Bound (mESCs [1]; −LIF, 13.5 ms, replicate iv): 0.100 µm2s-1
Diffusion coefficient, Diffusing (mESCs [1]; −LIF, 13.5 ms, replicate iv): 0.659 µm2s-1
Percentage, Bound (mESCs [1]; −LIF, 13.5 ms, replicate iv): 34.6%
Percentage, Diffusing (mESCs [1]; −LIF, 13.5 ms, replicate iv): 65.4%
Diffusion coefficient, Bound (mESCs [1]; −LIF, 13.5 ms, replicate ix): 0.100 µm2s-1
Diffusion coefficient, Diffusing (mESCs [1]; −LIF, 13.5 ms, replicate ix): 1.031 µm2s-1
Percentage, Bound (mESCs [1]; −LIF, 13.5 ms, replicate ix): 28.9%
Percentage, Diffusing (mESCs [1]; −LIF, 13.5 ms, replicate ix): 71.1%
Diffusion coefficient, Bound (mESCs [1]; −LIF, 13.5 ms, replicate v): 0.100 µm2s-1
Diffusion coefficient, Diffusing (mESCs [1]; −LIF, 13.5 ms, replicate v): 0.710 µm2s-1
Percentage, Bound (mESCs [1]; −LIF, 13.5 ms, replicate v): 39.6%
Percentage, Diffusing (mESCs [1]; −LIF, 13.5 ms, replicate v): 60.4%
Diffusion coefficient, Bound (mESCs [1]; −LIF, 13.5 ms, replicate vi): 0.100 µm2s-1
Diffusion coefficient, Diffusing (mESCs [1]; −LIF, 13.5 ms, replicate vi): 0.582 µm2s-1
Percentage, Bound (mESCs [1]; −LIF, 13.5 ms, replicate vi): 38.6%
Percentage, Diffusing (mESCs [1]; −LIF, 13.5 ms, replicate vi): 61.4%
Diffusion coefficient, Bound (mESCs [1]; −LIF, 13.5 ms, replicate vii): 0.100 µm2s-1
Diffusion coefficient, Diffusing (mESCs [1]; −LIF, 13.5 ms, replicate vii): 0.774 µm2s-1
Percentage, Bound (mESCs [1]; −LIF, 13.5 ms, replicate vii): 36.9%
Percentage, Diffusing (mESCs [1]; −LIF, 13.5 ms, replicate vii): 63.1%
Diffusion coefficient, Bound (mESCs [1]; −LIF, 13.5 ms, replicate viii): 0.100 µm2s-1
Diffusion coefficient, Diffusing (mESCs [1]; −LIF, 13.5 ms, replicate viii): 0.812 µm2s-1
Percentage, Bound (mESCs [1]; −LIF, 13.5 ms, replicate viii): 33.6%
Percentage, Diffusing (mESCs [1]; −LIF, 13.5 ms, replicate viii): 66.4%
foci formation, WT- versus R38/9A-expressing cells (mESCs [2]): no apparent difference
